Laboratory results as given in patent US20170121315A1, “HETEROBICYCLICALLY SUBSTITUTED 4-OXOBUTANE ACID DERIVATIVES AND USE THEREOF” (priority 2014, published 2017).

Experiments:
Assay type in all cases: biochemical
MMP-2 = target: T1, MMP-2 (Homo sapiens, UniProt P08253); assay: In vitro MMP-2 inhibition test; details: human MMP-2
T1 construct: purchased R&D Systems 902-MP
T1 sequence (P08253 110-660): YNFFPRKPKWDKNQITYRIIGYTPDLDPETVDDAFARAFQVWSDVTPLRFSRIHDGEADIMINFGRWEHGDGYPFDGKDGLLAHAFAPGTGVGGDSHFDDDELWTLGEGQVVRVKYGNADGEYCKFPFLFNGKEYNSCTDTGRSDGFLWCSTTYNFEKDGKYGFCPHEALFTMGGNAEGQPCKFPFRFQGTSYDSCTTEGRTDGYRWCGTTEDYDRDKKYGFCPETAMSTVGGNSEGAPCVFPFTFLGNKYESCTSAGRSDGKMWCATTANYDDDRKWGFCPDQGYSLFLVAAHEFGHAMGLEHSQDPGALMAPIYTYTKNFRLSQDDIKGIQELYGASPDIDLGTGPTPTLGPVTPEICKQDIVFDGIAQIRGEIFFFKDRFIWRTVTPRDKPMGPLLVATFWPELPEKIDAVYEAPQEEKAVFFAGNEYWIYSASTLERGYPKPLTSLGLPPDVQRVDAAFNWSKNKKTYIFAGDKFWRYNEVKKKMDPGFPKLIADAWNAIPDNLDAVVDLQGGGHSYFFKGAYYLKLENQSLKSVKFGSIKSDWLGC
From the text: (§1) The MMP-mediated amidolytic cleavage of a suitable peptide substrate leads to an increase in fluorescent light here too. The signal intensity of the fluorescent light is directly proportional to the enzyme activity. The active concentration of a test compound at which half the enzyme is inhibited (50% signal intensity of the fluorescent light) is reported as the IC50 value.
(§2) Recombinant MMP-2 (R&D Systems, 902-MP) is chemically activated in accordance with the manufacturer's instructions using APMA. 1 μl of the test compound to be analysed (as a solution in DMSO, suitable concentrations e.g. 1 nM to 30 μM) is pipetted into 24 μl of activated enzyme (final concentration e.g. 2 nM) in reaction buffer (50 mM Tris/HCl pH 7.5, 10 mM CaCl2, 150 mM NaCl, 0.05% Brij®-35) in a white 384-hole microtiter plate (MTP). The enzymatic reaction is started by adding the intramolecularly quenched Mca-Pro-Leu-Gly-Leu-Dpa(Dnp)-Ala-Arg-NH2 substrate (final concentration e.g. 10 μM; R&D Systems, ES-001), so as to result in a total test volume of 50 μl. The course of the MMP-2 reaction is measured by measuring the fluorescence intensity (excitation 320 nm, emission 410 nm) over a suitable period of time (e.g. over 120 min at a temperature of 32° C.).

MMP-3 = target: T2, MMP-3 (Homo sapiens, UniProt P08254); assay: In vitro MMP-3 inhibition test; details: human MMP-3
T2 construct: purchased R&D Systems 513-MP
T2 sequence (P08254 100-477): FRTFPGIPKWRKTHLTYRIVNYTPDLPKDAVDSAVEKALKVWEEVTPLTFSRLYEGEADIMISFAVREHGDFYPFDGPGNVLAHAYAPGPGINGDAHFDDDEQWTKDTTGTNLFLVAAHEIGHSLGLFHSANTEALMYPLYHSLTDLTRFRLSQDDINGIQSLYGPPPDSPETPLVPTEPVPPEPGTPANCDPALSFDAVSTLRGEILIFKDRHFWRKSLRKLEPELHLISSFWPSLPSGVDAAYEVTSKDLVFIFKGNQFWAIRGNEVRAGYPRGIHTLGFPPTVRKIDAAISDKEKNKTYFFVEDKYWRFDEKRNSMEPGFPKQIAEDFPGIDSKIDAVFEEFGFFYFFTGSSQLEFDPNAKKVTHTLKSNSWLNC
From the text: as §1
as §2, with “MMP-3” for “MMP-2”, “513-MP)” for “902-MP)”, “Mca-Arg-Pro-Lys-Pro-Val-Glu-Nval-Trp-Arg-Lys(Dnp)-NH2” for “Mca-Pro-Leu-Gly-Leu-Dpa(Dnp)-Ala-Arg-NH2”, “ES-002),” for “ES-001),”

MMP-9 = target: T3, MMP-9 (Homo sapiens, UniProt P14780); assay: In vitro MMP-9 inhibition test; details: human MMP-9
T3 construct: purchased R&D Systems 911-MP
T3 sequence (P14780 107-707 limits assumed): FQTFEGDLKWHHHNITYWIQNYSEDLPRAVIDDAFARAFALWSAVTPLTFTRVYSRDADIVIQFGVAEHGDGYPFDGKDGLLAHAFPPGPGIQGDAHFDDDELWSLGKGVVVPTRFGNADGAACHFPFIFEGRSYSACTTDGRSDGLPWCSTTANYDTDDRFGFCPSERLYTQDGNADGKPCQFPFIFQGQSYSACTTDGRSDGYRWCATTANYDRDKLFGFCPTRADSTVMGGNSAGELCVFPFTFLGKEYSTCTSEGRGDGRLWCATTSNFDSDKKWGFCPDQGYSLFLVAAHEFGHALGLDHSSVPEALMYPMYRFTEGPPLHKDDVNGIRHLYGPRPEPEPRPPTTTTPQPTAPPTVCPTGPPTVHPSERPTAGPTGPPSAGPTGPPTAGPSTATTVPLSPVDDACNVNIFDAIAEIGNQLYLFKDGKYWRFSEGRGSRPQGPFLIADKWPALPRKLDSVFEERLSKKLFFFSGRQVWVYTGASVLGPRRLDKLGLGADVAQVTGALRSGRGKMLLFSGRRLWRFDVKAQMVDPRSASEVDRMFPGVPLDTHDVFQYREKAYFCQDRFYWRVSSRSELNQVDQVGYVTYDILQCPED
From the text: as §1
as §2, with “Recombinant MMP-9” for “Recombinant MMP-2”, “Systems, 911-MP)” for “Systems, 902-MP)”, “e.g. 0.1” for “e.g. 2”, “the MMP-9” for “the MMP-2”

MMP-16 = target: T4, MMP-16 (Homo sapiens, UniProt P51512); assay: In vitro MMP-16 inhibition test; details: human MMP-16
T4 construct: purchased R&D Systems 1785-MP
T4 sequence (P51512 120-564 limits assumed): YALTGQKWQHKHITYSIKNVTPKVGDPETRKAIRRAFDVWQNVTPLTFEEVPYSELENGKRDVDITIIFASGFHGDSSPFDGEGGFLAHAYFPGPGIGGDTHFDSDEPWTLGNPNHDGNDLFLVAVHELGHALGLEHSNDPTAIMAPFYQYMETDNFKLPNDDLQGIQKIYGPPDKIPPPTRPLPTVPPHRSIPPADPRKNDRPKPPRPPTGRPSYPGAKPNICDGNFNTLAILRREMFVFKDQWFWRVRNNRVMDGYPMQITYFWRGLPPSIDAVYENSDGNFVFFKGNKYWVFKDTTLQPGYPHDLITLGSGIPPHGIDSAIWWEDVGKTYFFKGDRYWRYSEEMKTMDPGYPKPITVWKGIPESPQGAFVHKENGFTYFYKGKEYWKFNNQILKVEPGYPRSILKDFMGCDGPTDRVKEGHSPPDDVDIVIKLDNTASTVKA
From the text: as §1
Recombinant MMP-16 (R&D Systems, 1785-MP) is enzymatically activated in accordance with the manufacturer's instructions using recombinant furin (R&D Systems, 1503-SE). 1 μl of the test compound to be analysed (as a solution in DMSO, suitable concentrations e.g. 1 nM to 30 μM) is pipetted into 24 μl of activated enzyme (final concentration e.g. 1 nM) in reaction buffer (50 mM Tris/HCl pH 7.5, 10 mM CaCl2, 150 mM NaCl, 0.05% Brij®-35) in a white 384-hole microtiter plate (MTP). The enzymatic reaction is started by adding the intramolecularly quenched Mca-Lys-Pro-Leu-Gly-Leu-Dpa(Dnp)-Ala-Arg-NH2 substrate (final concentration e.g. 5 μM; R&D Systems, ES-010), so as to result in a total test volume of 50 μl. The course of the MMP-16 reaction is measured by measuring the fluorescence intensity (excitation 320 nm, emission 410 nm) over a suitable period of time (e.g. over 120 min at a temperature of 32° C.).

Row | SMILES | IC50 (MMP-2) | IC50 (MMP-3) | IC50 (MMP-9) | IC50 (MMP-16)
1 | O=C(CC(CCn1nnc2ccccc2c1=O)C(=O)O)c1coc2cc(OCCC3CCOCC3)ccc12 (racemic) [Example 74, (+/−)-4-Oxo-2-[2-(4-oxo-1,2,3-benzotriazin-3(4H)-yl)ethyl]-4-{6-[2-(tetrahydro-2H-pyran-4-yl)ethoxy]-1-benzofur-3-yl}butanoic acid] | 20 nM | 16000 nM | 180 nM | 6400 nM
2 | O=C(CC(CCn1nnc2ccccc2c1=O)C(=O)O)c1coc2cc(OCCC3CCCC3)ccc12 (racemic) [Example 75, (+/−)-4-[6-(2-Cyclopentylethoxy)-1-benzofur-3-yl]-4-oxo-2-[2-(4-oxo-1,2,3-benzotriazin-3(4H)-yl)ethyl]butanoic acid] | 390 nM | > 40000 nM | 450 nM | > 40000 nM
3 | CCCCCOc1ccc2c(C(=O)CC(CCn3nnc4ccccc4c3=O)C(=O)O)coc2c1 (racemic) [Example 89, (+/−)-4-Oxo-2-[2-(4-oxo-1,2,3-benzotriazin-3(4H)-yl)ethyl]-4-[6-(pentyloxy)-1-benzofur-3-yl]butanoic acid] | 290 nM | > 40000 nM | 230 nM | > 40000 nM
4 | CCCCCCCOc1ccc2c(C(=O)CC(CCn3nnc4ccccc4c3=O)C(=O)O)coc2c1 (racemic) [Example 101, (+/−)-4-[6-(Heptyloxy)-1-benzofur-3-yl]-4-oxo-2-[2-(4-oxo-1,2,3-benzotriazin-3(4H)-yl)ethyl]butanoic acid] | 660 nM | > 40000 nM | 420 nM | > 40000 nM
5 | O=C(CC(CCn1nnc2ccccc2c1=O)C(=O)O)c1cc2ccc(OCC3CC3)cc2s1 (racemic) [Example 111, (+/−)-4-[6-(Cyclopropylmethoxy)-1-benzothiophen-2-yl]-4-oxo-2-[2-(4-oxo-1,2,3-benzotriazin-3(4H)-yl)ethyl]butanoic acid] | 350 nM | 9700 nM | 1100 nM | > 40000 nM
6 | O=C(CC(CCn1nnc2ccccc2c1=O)C(=O)O)c1cc2ccc(OCCc3ccccc3)cc2s1 (racemic) [Example 114, (+/−)-4-Oxo-2-[2-(4-oxo-1,2,3-benzotriazin-3(4H)-yl)ethyl]-4-[6-(2-phenylethoxy)-1-benzothiophen-2-yl]butanoic acid] | 83 nM | 3200 nM | 240 nM | 28000 nM
7 | CCCCCOc1ccc2cc(C(=O)CC(CCn3nnc4ccccc4c3=O)C(=O)O)sc2c1 (racemic) [Example 118, (+/−)-4-Oxo-2-[2-(4-oxo-1,2,3-benzotriazin-3(4H)-yl)ethyl]-4-[6-(pentyloxy)-1-benzothiophen-2-yl]butanoic acid] | 350 nM | 16000 nM | 1200 nM | > 40000 nM

The remaining lines, values ahead:

Row | IC50 (MMP-2) | IC50 (MMP-3) | IC50 (MMP-9) | IC50 (MMP-16) | SMILES
8 | 320 nM | 15000 nM | 190 nM | 30000 nM | O=C(CC(CCn1nnc2ccccc2c1=O)C(=O)O)c1noc2cc(OCc3ccc(F)cc3)ccc12 (racemic) [Example 136, (+/−)-4-{6-[(4-Fluorobenzyl)oxy]-1,2-benzoxazol-3-yl}-4-oxo-2-[2-(4-oxo-1,2,3-benzotriazin-3(4H)-yl)ethyl]butanoic acid]
9 | 95 nM | 14000 nM | 43 nM | 24000 nM | CCCCCOc1ccc2c(C(=O)CC(CCn3nnc4ccccc4c3=O)C(=O)O)noc2c1 (racemic) [Example 140, (+/−)-4-Oxo-2-[2-(4-oxo-1,2,3-benzotriazin-3(4H)-yl)ethyl]-4-[6-(pentyloxy)-1,2-benzoxazol-3-yl]butanoic acid]
10 | 730 nM | 18000 nM | 760 nM | 15000 nM | O=C(CC(CCn1nnc2ccccc2c1=O)C(=O)O)c1noc2cc(OCCc3ccccc3)ccc12 (racemic) [Example 144, (+/−)-4-Oxo-2-[2-(4-oxo-1,2,3-benzotriazin-3(4H)-yl)ethyl]-4-[6-(2-phenylethoxy)-1,2-benzoxazol-3-yl]butanoic acid]
11 | 430 nM | 8900 nM | 170 nM | 25000 nM | O=C(CC(CCn1nnc2ccccc2c1=O)C(=O)O)c1noc2cc(OCc3ccccc3)ccc12 (racemic) [Example 145, (+/−)-4-[6-(Benzyloxy)-1,2-benzoxazol-3-yl]-4-oxo-2-[2-(4-oxo-1,2,3-benzotriazin-3(4H)-yl)ethyl]butanoic acid]
12 | 270 nM | 9100 nM | 910 nM | > 40000 nM | O=C(CC(CCn1nnc2ccccc2c1=O)C(=O)O)c1noc2cc(OCc3cccnc3)ccc12 (racemic) [Example 148, (+/−)-4-Oxo-2-[2-(4-oxo-1,2,3-benzotriazin-3(4H)-yl)ethyl]-4-[6-(pyridin-3-ylmethoxy)-1,2-benzoxazol-3-yl]butanoic acid]
13 | 510 nM | 33000 nM | 650 nM | 11000 nM | O=C(CC(CCn1nnc2ccccc2c1=O)C(=O)O)c1noc2cc(OCC3CC3)ccc12 (racemic) [Example 150, (+/−)-4-[6-(Cyclopropylmethoxy)-1,2-benzoxazol-3-yl]-4-oxo-2-[2-(4-oxo-1,2,3-benzotriazin-3(4H)-yl)ethyl]butanoic acid]
14 | 420 nM | 12000 nM | 450 nM | > 40000 nM | O=C(CC(CCn1nnc2ccccc2c1=O)C(=O)O)c1noc2cc(OCC3CCCCC3)ccc12 (racemic) [Example 153, (+/−)-4-[6-(Cyclohexylmethoxy)-1,2-benzoxazol-3-yl]-4-oxo-2-[2-(4-oxo-1,2,3-benzotriazin-3(4H)-yl)ethyl]butanoic acid]
